Structures are written as SMILES.

In this assay the target is interaction between p53 and MDM2 proteins (Homo sapiens, UniProt Q00987). As to the kind of experiment: HTRF assay of inhibition of p53-MDM2 interaction (GST-MDM2 / biotinylated p53 peptide).
interaction between p53 and MDM2 proteins, sequence (Q00987 whole entry): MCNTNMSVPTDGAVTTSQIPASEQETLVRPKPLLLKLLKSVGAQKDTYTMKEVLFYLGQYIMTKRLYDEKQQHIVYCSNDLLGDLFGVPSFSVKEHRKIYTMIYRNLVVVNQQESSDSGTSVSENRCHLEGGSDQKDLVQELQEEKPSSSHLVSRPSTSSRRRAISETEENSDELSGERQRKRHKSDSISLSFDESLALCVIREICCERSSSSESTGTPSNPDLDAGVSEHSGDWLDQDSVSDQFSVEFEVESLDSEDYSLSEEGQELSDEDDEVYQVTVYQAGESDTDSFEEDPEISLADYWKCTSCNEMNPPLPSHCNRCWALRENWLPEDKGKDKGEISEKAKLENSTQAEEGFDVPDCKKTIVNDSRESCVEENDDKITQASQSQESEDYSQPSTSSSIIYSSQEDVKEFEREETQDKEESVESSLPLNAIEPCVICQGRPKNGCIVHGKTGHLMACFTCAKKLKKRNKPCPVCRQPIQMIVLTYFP
Description: The ability of the compounds to inhibit the interaction between p53 and MDM2 proteins was measured by an HTRF (homogeneous time-resolved fluorescence) assay in which recombinant GST-tagged MDM2 binds to a peptide that resembles the MDM2-interacting region of p53. Binding of GST-MDM2 protein and p53-peptide (biotinylated on its N-terminal end) is registered by the FRET (fluorescence resonance energy transfer) between Europium (Eu)-labeled anti-GST antibody and streptavidin-conjugated Allophycocyanin (APC).
Test is performed in black flat-bottom 384-well plates (Costar) in a total volume of 40 uL containing: 90 nM biotinylate peptide, 160 ng/ml GST-MDM2, 20 nM streptavidin-APC (PerkinElmerWallac), 2 nM Eu-labeled anti-GST-antibody (PerkinElmerWallac), 0.2% bovine serum albumin (BSA), 1 mM dithiothreitol (DTT) and 20 mM Tris-borate saline (TBS) buffer as follows: Add 10 uL of GST-MDM2 (640 ng/ml working solution) in reaction buffer to each well. […] Incubate at 37° C. for 1 h. Add 20 uL streptavidin-APC and Eu-anti-GST antibody mixture (6 nM Eu-anti-GST and 60 nM streptavidin-APC working solution) in TBS buffer with 0.2% BSA, shake at room temperature for 30 minutes and read using a TRF-capable plate reader at
Consider `COc1cc(C(=O)O)ccc1N1CN2[C@@H](CC(C)(C)C)[C@@]3(C(=O)Nc4cc(Cl)ccc43)[C@@H](c3cccc(Cl)c3F)[C@@H]2C1=O` [Example 21, chiral 4-((3S,5′R,7′R,7a′S)-6-chloro-7′-(3-chloro-2-fluorophenyl)-5′-neopentyl-1′,2-dioxo-7′,7a′-dihydrospiro[indoline-3,6′-pyrrolo[1,2-c]imidazole]-2′(1′H,3′H,5′H)-yl)-3-methoxybenzoic acid], for which the IC50 stood at 6 nM.
Compound `COc1cc(N2CN3[C@@H](CC(C)(C)C)[C@@]4(C(=O)Nc5cc(Cl)ccc54)[C@@H](c4cccc(Cl)c4F)[C@@H]3C2=O)ccc1C(=O)O` (racemic) [Example 18, Rac 4-((3R,5′S,7′S,7a′R)-6-chloro-7′-(3-chloro-2-fluorophenyl)-5′-neopentyl-1′,2-dioxo-7′,7a′-dihydrospiro[indoline-3,6′-pyrrolo[1,2-c]imidazole]-2′(1′H,3′H,5′H)-yl) 2-methoxybenzoic acid] had an IC50 of 7 nM.
In the case of `CC(C)(C)CC1N2CN(CC(=O)O)C(=O)C2C(c2cccc(Cl)c2F)C12C(=O)Nc1cc(Cl)ccc12` (racemic) [Example 37, rac of 2-((3R,5′S,7′S,7a′R)-6-chloro-7′-(3-chloro-2-fluorophenyl)-5′-neopentyl-1′,2-dioxo-7′,7a′-dihydrospiro[indoline-3,6′-pyrrolo[1,2-c]imidazole]-2′(1′H,3′H,5′H)-yl)acetic acid], the IC50 was 13 nM.
In turn, `COc1cc(C(N)=O)ccc1N1CN2[C@@H](CC(C)(C)C)[C@@]3(C(=O)Nc4cc(Cl)ccc43)[C@@H](c3cccc(Cl)c3F)[C@@H]2C1=O` [Example 22, chiral 4-((3R,5′S,7′S,7a′R)-6-chloro-7′-(3-chloro-2-fluorophenyl)-5′-neopentyl-1′,2-dioxo-7′,7a′-dihydrospiro[indoline-3,6′-pyrrolo[1,2-c]imidazole]-2′(1′H,3′H,5′H)-yl)-3-methoxybenzamide] registered an IC50 of 5 nM.
The same measure for `COc1cc(N2CN3[C@@H](CC(C)(C)C)[C@@]4(C(=O)N(CO)c5cc(Cl)ccc54)[C@@H](c4cccc(Cl)c4F)[C@@H]3C2=O)ccc1C(N)=O` [Example 31]: 12 nM.
To `COc1cc(N2CN3[C@@H](CC(C)(C)C)[C@@]4(C(=O)Nc5cc(Cl)ccc54)[C@@H](c4cccc(Cl)c4F)[C@@H]3C2=O)ccc1C(N)=O` (single isomer, unassigned) [Example 25] belongs 4 nM; to `CC(C)(C)C[C@H]1N2CN(c3ccc(C(=O)O)cc3)C(=O)[C@@H]2[C@@H](c2cccc(Cl)c2F)[C@@]12C(=O)Nc1cc(Cl)ccc12` [Example 30, chiral 4-((3S,5′R,7′R,7a′S)-6-chloro-7′-(3-chloro-2-fluorophenyl)-5′-neopentyl-1′,2-dioxo-7′,7a′-dihydrospiro[indoline-3,6′-pyrrolo[1,2-c]imidazole]-2′(1′H,3′H,5′H)-yl)benzoic acid], 128 nM; to `COc1cc(N2CN3[C@@H](CC(C)(C)C)[C@@]4(C(=O)N(CO)c5cc(Cl)ccc54)[C@@H](c4cccc(Cl)c4F)[C@@H]3C2=O)ccc1C(=O)O` (racemic) [Example 16, Rac 4-((3R,5′S,7′S,7a′R)-6-chloro-7′-(3-chloro-2-fluorophenyl)-1-(hydroxymethyl)-5′-neopentyl-1′,2-dioxo-7′,7a′-dihydrospiro[indoline-3,6′-pyrrolo[1,2-c]imidazole]-2′(1′H,3′H,5′H)-yl)-2-methoxybenzoic acid], 25 nM.

The values are drawn from patent US20120071499A1, “Substituted Spiro[3H-Indole-3,6'(5'H)-[1H]Pyrrolo[1,2c]Imidazole-1',2(1H,2'H)-diones” (priority 2010, published 2012).
